ChEMBL document CHEMBL1201862, “PubChem BioAssay data set” (2004)
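Results reflect a 48-hour exposure of cells in 96-well plates to compound at five concentrations. GI50 marks 50% less growth.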 Active and inactive are the calls of the source. Rule as the data show it: active = GI50 up to about 1.1 µM and inactive = higher.

Key:
Experiment in all cases: NCI tumour cell line growth inhibition, 48 h
NCI/ADR-RES = system: NCI/ADR-RES
OVCAR-3 = system: OVCAR-3
UACC-62 = system: UACC-62
HOP-92 = system: HOP-92
Hs-578T = system: Hs-578T
PC-3 = system: PC-3
SK-OV-3 = system: SK-OV-3
NCI-H23 = system: NCI-H23
T47D = system: T47D
U-251 = system: U-251
SF-268 = system: SF-268
MCF7 = system: MCF7
ACHN = system: ACHN
786-0 = system: 786-0
M19-MEL = system: M19-MEL
XF498 = system: XF498
LXFL 529 = system: LXFL 529
KM-20L2 = system: KM-20L2
SNB-78 = system: SNB-78
DMS-273 = system: DMS-273

SMILES	GI50 (NCI/ADR-RES)	GI50 (OVCAR-3)	GI50 (UACC-62)	GI50 (HOP-92)	GI50 (Hs-578T)	GI50 (PC-3)	GI50 (SK-OV-3)	GI50 (NCI-H23)	GI50 (T47D)	GI50 (U-251)	GI50 (SF-268)	GI50 (MCF7)	GI50 (ACHN)	GI50 (786-0)	GI50 (M19-MEL)	GI50 (XF498)	GI50 (LXFL 529)	GI50 (KM-20L2)	GI50 (SNB-78)	GI50 (DMS-273)
O=C1C[C@H](c2ccccc2)C2(C(=O)c3ccccc3C2=O)[C@H](c2ccccc2)C1	> 100 µM (inactive)	> 100 µM (inactive)	79.1 µM (inactive)	32.2 µM (inactive)	29.8 µM (inactive)	> 100 µM (inactive)	19.5 µM (inactive)	> 100 µM (inactive)	> 100 µM (inactive)	> 100 µM (inactive)										
Cc1[nH]c(-c2ccccc2)c(O)c1C(=O)OC1CC(C)CCC1C(C)C (stereo not drawn)	14.7 µM (inactive)	12.7 µM (inactive)	16.5 µM (inactive)	17.6 µM (inactive)	18.3 µM (inactive)	13.8 µM (inactive)	15.3 µM (inactive)	13.4 µM (inactive)	13.7 µM (inactive)	15.5 µM (inactive)	15.3 µM (inactive)	3.91 µM (inactive)	16.4 µM (inactive)	15.3 µM (inactive)						
C[C@]12CCC3[C@@H](C[C@H]4OC(=O)[C@@]35CCC(=O)C=C45)C1CCC2=O (stereo partly drawn)		> 100 µM (inactive)		> 100 µM (inactive)			> 100 µM (inactive)	> 100 µM (inactive)		> 100 µM (inactive)	> 100 µM (inactive)		> 100 µM (inactive)	> 100 µM (inactive)	> 100 µM (inactive)	> 100 µM (inactive)	> 100 µM (inactive)			
Nc1nc(Cl)cc(NCCCCO)n1		> 10 µM (inactive)	> 100 µM (inactive)	> 100 µM (inactive)			> 100 µM (inactive)	> 100 µM (inactive)		> 100 µM (inactive)	> 100 µM (inactive)		> 100 µM (inactive)		> 100 µM (inactive)		> 100 µM (inactive)	> 100 µM (inactive)	15.9 µM (inactive)	> 100 µM (inactive)
Cc1ccc(NC(=O)C2C(=O)N(c3ccc(C)c(C)c3)C(=O)/C2=N\NC(N)=S)cc1C (stereo not drawn)		> 100 µM (inactive)	50 µM (inactive)	> 100 µM (inactive)			45 µM (inactive)	> 100 µM (inactive)		58.3 µM (inactive)	61.4 µM (inactive)		> 100 µM (inactive)	> 100 µM (inactive)	> 100 µM (inactive)	97.1 µM (inactive)	> 100 µM (inactive)	> 100 µM (inactive)	> 100 µM (inactive)	> 100 µM (inactive)
Oc1cc(-c2ccc(Cl)cc2)nc2ncccc12	36 µM (inactive)		28.9 µM (inactive)	41.2 µM (inactive)	56.2 µM (inactive)		46 µM (inactive)	86.5 µM (inactive)	61.7 µM (inactive)	36.6 µM (inactive)	53.2 µM (inactive)	16.6 µM (inactive)	79.4 µM (inactive)							
Nc1nc(SCCc2ccccc2)nc2nc3c(c(-c4ccccc4)c12)CCCC3	> 100 µM (inactive)	> 100 µM (inactive)	> 100 µM (inactive)		8.65 µM (inactive)	> 100 µM (inactive)	99.1 µM (inactive)	> 100 µM (inactive)	> 100 µM (inactive)	> 100 µM (inactive)	> 100 µM (inactive)	> 100 µM (inactive)	> 100 µM (inactive)							
O=[N+]([O-])/C(C(Cl)=C(Cl)Cl)=C1\Nc2ccccc2O1		23.4 µM (inactive)	9.16 µM (inactive)	12 µM (inactive)	32.3 µM (inactive)	70.5 µM (inactive)	> 100 µM (inactive)	67.3 µM (inactive)	> 100 µM (inactive)	> 100 µM (inactive)	> 100 µM (inactive)	40.2 µM (inactive)	35.8 µM (inactive)	17 µM (inactive)						
O=P(Nc1ccc(Cl)cc1)(Oc1ccccc1)N(CCCl)CCCl (stereo not drawn)		> 100 µM (inactive)	> 100 µM (inactive)	> 100 µM (inactive)			> 100 µM (inactive)	> 100 µM (inactive)		> 100 µM (inactive)	> 100 µM (inactive)		> 100 µM (inactive)		> 100 µM (inactive)		> 100 µM (inactive)	> 100 µM (inactive)	> 100 µM (inactive)	> 100 µM (inactive)
CC(Oc1ccc(Cl)cc1Cl)C(=O)NN1C(=O)CC(=O)NC1=S (stereo not drawn)	> 100 µM (inactive)	> 100 µM (inactive)	36.5 µM (inactive)	39.6 µM (inactive)	> 100 µM (inactive)	> 100 µM (inactive)	> 100 µM (inactive)	> 100 µM (inactive)	31.8 µM (inactive)	> 100 µM (inactive)	> 100 µM (inactive)	76.7 µM (inactive)	88.1 µM (inactive)	> 100 µM (inactive)						
COn1oc(=O)c2ccccc21	> 100 µM (inactive)	> 100 µM (inactive)	> 100 µM (inactive)	> 100 µM (inactive)	> 100 µM (inactive)	> 100 µM (inactive)	> 100 µM (inactive)	> 100 µM (inactive)		> 100 µM (inactive)	> 100 µM (inactive)	> 100 µM (inactive)	> 100 µM (inactive)	> 100 µM (inactive)						
O=S(O)CCCCCSSc1ccccc1		43.7 µM (inactive)	28.3 µM (inactive)				> 100 µM (inactive)	52.5 µM (inactive)		21.3 µM (inactive)	15.8 µM (inactive)		85.7 µM (inactive)		50 µM (inactive)	24.2 µM (inactive)	17 µM (inactive)		41 µM (inactive)	
CCC1NC(/N=N/c2ccc([N+](=O)[O-])cc2)(P(=O)(OC(C)C)OC(C)C)OC1=O (stereo not drawn)		> 100 µM (inactive)	97.1 µM (inactive)	> 100 µM (inactive)			> 100 µM (inactive)	> 100 µM (inactive)		> 100 µM (inactive)	> 100 µM (inactive)		> 100 µM (inactive)		> 100 µM (inactive)	> 100 µM (inactive)	> 100 µM (inactive)	> 100 µM (inactive)	> 100 µM (inactive)	> 100 µM (inactive)
CC(C)(C)c1ccc2c(c1)OP1(Oc3cccc4cccnc34)(O2)Oc2ccc(C(C)(C)C)cc2O1	2.96 µM (inactive)	1.79 µM (inactive)	3.26 µM (inactive)	4.61 µM (inactive)			48.2 µM (inactive)	3.05 µM (inactive)		7 µM (inactive)	6.56 µM (inactive)	0.655 µM (active)			10.5 µM (inactive)	2.72 µM (inactive)		4.05 µM (inactive)	34.4 µM (inactive)	3.75 µM (inactive)
C=C1C(O)C2(O)OCC34C(CC5C(C)=CC(=O)C(O)C5(C)C23)OC(=O)C(OC(=O)C/C=C/CCCCCCCC)C14 (stereo not drawn)	0.162 µM (active)		0.0214 µM (active)	0.02 µM (active)			0.056 µM (active)	0.02 µM (active)		0.02 µM (active)	0.0209 µM (active)				0.02 µM (active)	0.0221 µM (active)		0.0208 µM (active)	0.0219 µM (active)	0.02 µM (active)
C[C@@H](NC(=O)[C@@H]1C[C@]1(C)COC(=O)c1cc([N+](=O)[O-])cc([N+](=O)[O-])c1)c1cccc2ccccc12	> 100 µM (inactive)	24.3 µM (inactive)	50 µM (inactive)	80.2 µM (inactive)	20 µM (inactive)	> 100 µM (inactive)	> 100 µM (inactive)	> 100 µM (inactive)	65.3 µM (inactive)	99.3 µM (inactive)	> 100 µM (inactive)	> 100 µM (inactive)	33.7 µM (inactive)	> 100 µM (inactive)						
C/C(=C\c1ccccc1)n1c(=O)cc(C)n1C	> 100 µM (inactive)	> 100 µM (inactive)	> 100 µM (inactive)	> 100 µM (inactive)	> 100 µM (inactive)	> 100 µM (inactive)	> 100 µM (inactive)	> 100 µM (inactive)	> 100 µM (inactive)	> 100 µM (inactive)	> 100 µM (inactive)	> 100 µM (inactive)	> 100 µM (inactive)							
CSc1nc(NC2OCC(O)C(O)C2O)c(N)c(=O)n1C (stereo not drawn)	> 100 µM (inactive)	> 100 µM (inactive)	> 100 µM (inactive)	> 100 µM (inactive)			> 100 µM (inactive)	> 100 µM (inactive)		> 100 µM (inactive)	> 100 µM (inactive)	> 100 µM (inactive)				> 100 µM (inactive)		> 100 µM (inactive)	> 100 µM (inactive)	> 100 µM (inactive)
O=C(NC(Cc1ccc(I)cc1)C(=O)O)c1cccc(Br)c1 (stereo not drawn)	99.5 µM (inactive)	54.6 µM (inactive)	50.6 µM (inactive)	44.9 µM (inactive)			> 100 µM (inactive)	> 100 µM (inactive)		78.3 µM (inactive)	> 100 µM (inactive)	38 µM (inactive)			56.2 µM (inactive)			> 100 µM (inactive)	> 100 µM (inactive)	> 100 µM (inactive)
